pIC50: −log10 of the molar value.
Legend:
[1] = biological target: BCL-2 binding to biotinylated BAD peptide (Homo sapiens (Human), UniProt P10415); assay: SPR (Biacore) solution inhibition assay, BCL-2 binding to BAD peptide surface; conditions: read-out: BCL2_SPR IC50 BAD
From the text: (§1) The present method includes utility of a Surface plasmon resonance (SPR)-based biosensor (Biacore™′ GE Healthcare, Uppsala, Sweden) to characterize BCL-2 inhibitors.
(§2) Biacore™ utilizes the phenomenon of surface plasmon resonance (SPR) to detect and measure binding interactions. In a typical Biacore experiment, one of the interacting molecules (ligand) is immobilized on a flexible dextran matrix while the interacting partner (analyte) is allowed to flow across that surface. A binding interaction results in an increase in mass on the sensor surface and a corresponding direct change in the refractive index of the medium in the vicinity of the sensor surface. Changes in refractive index or signal are recorded in resonance units (R.U.) Signal changes due to association and dissociation of complexes are monitored in a non-invasive manner, continuously and in real-time, the results of which are reported in the form of a sensorgram.
(§3) The SPR assay is configured to examine solution inhibition of BCL-2 binding to peptide derivatized sensor surfaces to generate IC50 values as a measure of inhibitor potency.
(§4) Biacore™ A100 (GE Healthcare, Uppsala, Sweden) was used to conduct all experiments reported herein. Sensor surface preparation and all interaction analyses experiments were performed at 25° C. Reagents were purchased from GE Healthcare. Running buffer containing 10 mM Hepes, pH7.4, 150 mM sodium chloride, 1.25 mM Dithiothreitol, 3% Dimethyl sulfoxide and 0.05% polysorbate 20 were utilized throughout all analyses.
(§5) Biotinylated BAK, BAD and NOXA peptides were diluted to 10 nM in running buffer and captured onto a sensor surface pre-derivatized with streptavidin (sensor chip SA) to peptide surface densities in the range 50-100 R.U. Peptide captured surfaces were blocked with 50004 PEO2-Biotin.
(§6) Interaction analyses were performed by first equilibrating each sample within a 6 point three fold compound dilution series in the range […] with 56 nM BCL-2 for one hour during instrument start-up procedures. Protein compound mixtures were then injected over each peptide surface in parallel for 60 seconds at a flow-rate of 30 μL/min. 56 nM BCL-2 control samples were also prepared and run at regular intervals during the assay. Surface regeneration was performed at the end of each analysis cycle by two 30 second injections of 10 mM Glycine, pH 2.5, 1M Sodium Chloride, 0.05% polysorbate 20. Samples and control compound samples were run in duplicate and controls are also run at regular intervals during the assay to monitor surface and assay performance.
(§7) Data analyses are carried out using Biacore™ A100 evaluation software v1.1 to validate assay quality. Binding level report points were used relative to BCL-2 control samples to calculate % inhibition values for each compound protein mixture. […] The range of data shown in table 1 represents the high and low IC50 values obtained from multiple experiments.

[2] = biological target: BCL-2 binding to biotinylated BAK peptide (Homo sapiens (Human), UniProt P10415); assay: SPR (Biacore) solution inhibition assay, BCL-2 binding to BAK peptide surface; conditions: read-out: BCL2_SPR IC50 BAK
From the text: as §1, §2, §3, §4, §5, §6, §7

Chain of BCL-2 binding to biotinylated BAK peptide (P10415 whole entry): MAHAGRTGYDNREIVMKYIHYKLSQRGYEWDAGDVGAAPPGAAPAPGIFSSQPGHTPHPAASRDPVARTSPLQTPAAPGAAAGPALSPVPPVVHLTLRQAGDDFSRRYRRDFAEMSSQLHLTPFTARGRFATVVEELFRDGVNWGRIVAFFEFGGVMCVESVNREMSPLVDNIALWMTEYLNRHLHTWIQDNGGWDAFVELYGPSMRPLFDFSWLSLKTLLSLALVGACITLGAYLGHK
Chain of BCL-2 binding to biotinylated BAD peptide (P10415 whole entry): as above

Compound | pIC50 [1] | pIC50 [2]
CCCCN(CCCC)C(=O)c1nn(-c2ccc(OCC(=O)O)cc2C(=O)N2Cc3ccccc3C[C@H]2CO)c(C)c1Cl [Example 2, [4-(4-Chloro-3-dibutylcarbamoyl-5-methyl-pyrazol-1-yl)-3-((S)-3-hydroxymethyl-3,4-dihydro-1H-isoquinoline-2-carbonyl)-phenoxy]-acetic acid] | 6.82 to 6.83 | 6.86 to 6.88
CCCCN(CCCC)C(=O)c1cc(C)n(-c2cc(OCC(=O)O)ccc2C(=O)N2Cc3ccccc3C[C@H]2CO)n1 [Example 5, [3-(3-Dibutylcarbamoyl-5-methyl-pyrazol-1-yl)-4-((S)-3-hydroxymethyl-3,4-dihydro-1H-isoquinoline-2-carbonyl)-phenoxy]-acetic acid] | 6.98 to 7.00 | 7.06 to 7.08
CCCCN(CCCC)C(=O)c1nn(-c2ccc(OCC(=O)Nc3ccccc3)cc2C(=O)N2Cc3ccccc3C[C@H]2CO)c(C)c1Cl [Example 3, 4-Chloro-1-[2-((S)-3-hydroxymethyl-3,4-dihydro-1H-isoquinoline-2-carbonyl)-4-phenylcarbamoylmethoxy-phenyl]-5-methyl-1H-pyrazole-3-carboxylic acid dibutylamide] | 6.32 to 6.36 | 6.36 to 6.39
CCCCN(CCCC)C(=O)c1nn(-c2ccc(OCC(=O)OCC)cc2C(=O)N2Cc3ccccc3C[C@H]2CO)c(C)c1Cl [Example 1, [4-(4-Chloro-3-dibutylcarbamoyl-5-methyl-pyrazol-1-yl)-3-((S)-3-hydroxymethyl-3,4-dihydro-1H-isoquinoline-2-carbonyl)-phenoxy]-acetic acid ethyl ester] | 6.29 | 6.39 to 6.44
CCCCN(CCCC)C(=O)c1cc(C)n(-c2cc(OCC(=O)OCC)ccc2C(=O)N2Cc3ccccc3C[C@H]2CO)n1 [Example 4, [3-(3-Dibutylcarbamoyl-5-methyl-pyrazol-1-yl)-4-((S)-3-hydroxymethyl-3,4-dihydro-1H-isoquinoline-2-carbonyl)-phenoxy]-acetic acid ethyl ester] | 5.87 to 5.93 | 6.11

Second part, the compound after the results:

pIC50 [1] | pIC50 [2] | Compound
6.20 to 6.21 | 6.36 to 6.39 | CCCCN(CCCC)C(=O)c1nn(-c2ccc(O)cc2C(=O)N2Cc3ccccc3C[C@H]2CO)c(C)c1Cl [Example 9]
6.52 to 6.59 | 6.59 to 6.62 | CCCCN(CCCC)C(=O)c1cc(C)n(-c2cc(O)ccc2C(=O)N2Cc3ccccc3C[C@H]2CO)n1 [Example 11]
6.31 to 6.35 | 6.52 to 6.57 | CCCCN(CCCC)C(=O)c1cc(C)n(-c2cc(OC)ccc2C(=O)N2Cc3ccccc3C[C@H]2CO)n1 [Example 12]
5.81 to 5.82 | 5.88 to 5.90 | CCCCN(CCCC)C(=O)c1cc(C)n(-c2cc(OCC(=O)OCc3ccccc3)ccc2C(=O)N2Cc3ccccc3C[C@H]2CO)n1 [Example 7, [3-(3-Dibutylcarbamoyl-5-methyl-pyrazol-1-yl)-4-((S)-3-hydroxymethyl-3,4-dihydro-1H-isoquinoline-2-carbonyl)-phenoxy]-acetic acid benzyl ester]
5.68 | 5.88 to 5.90 | CCCCN(CCCC)C(=O)c1cc(C)n(-c2cc(OCC(=O)Nc3ccccc3)ccc2C(=O)N2Cc3ccccc3C[C@H]2CO)n1 [Example 6, 1-[2-((S)-3-Hydroxymethyl-3,4-dihydro-1H-isoquinoline-2-carbonyl)-5-phenylcarbamoylmethoxy-phenyl]-5-methyl-1H-pyrazole-3-carboxylic acid dibutylamide]
5.52 to 5.54 | 5.76 to 5.77 | CCCCN(CCCC)C(=O)c1cc(C)n(-c2cc(OCC(=O)Nc3ccccc3F)ccc2C(=O)N2Cc3ccccc3C[C@H]2CO)n1 [Example 8]
5.77 to 5.86 | 6.01 to 6.09 | CCCCN(CCCC)C(=O)c1nn(-c2ccc(OC)cc2C(=O)N2Cc3ccccc3C[C@H]2CO)c(C)c1Cl [Example 10]

From US9126979B2, “Compounds for inhibiting the interaction of BCL2 with binding partners” (Novartis AG, priority 2011, dated 2015)
